The target of data set [1] is T1, Pgp in RBE4-MDR1-EGFP cells (Homo sapiens, UniProt P08183).
T1 construct: expressed in transfected cells; host or cells: RBE4 (rat BCEC line), lentiviral transduction, doxycycline-inducible
The experiment in a line: Rhodamine 123 uptake/accumulation assay, RBE4-MDR1-EGFP cells. In kind it is cell-based, rat. The conditions noted are these: RBE4-MDR1-EGFP in the presence of doxycycline; tariquidar 0.5 µM. As for the experimental part: Piet Borst (The Netherlands Cancer Institute, Amsterdam, The Netherlands) as template. The linker sequence in the vector fusing EGFP and MDR1 consists of 36 bp ([…]). hCMEC/D3-WT, RBE4-WT, and hCMEC/D3-MDR1-EGFP cell lines were cultivated as previously described. The same culture conditions were used for the newly prepared RBE4-MDR1-EGFP cell line. As described previously, hydrocortisone (1.4 µM) was added to the culture medium to enhance the expression and functionality of Pgp and transendothelial resistance. All endothelial cell lines were grown on rat-tail collagen I (60 µg/mL, Gibco) coated 100 mm cultures dishes or permeable membrane supports at 37 °C and 5% CO2. Pgp-EGFP protein expression in MDR1-EGFP transduced cells was induced by cell cultivation in medium containing […] doxycycline. Expression of Pgp-EGFP was regularly verified by observing the cells with an inverted fluorescence microscope. Doxycycline supplementation of the medium was maintained during the whole culturing period of Pgp-EGFP expressing cells. For experiments, hCMEC/D3 and RBE4 cells were seeded in a density of 50,000 cells/cm^2. Immortalized MDR1 transfected porcine kidney LLC-PK1 (LLC-MDR1) cells, which were used as a reference standard for vectorial transport experiments, were kindly provided by Prof. Piet Borst. […]

Data set [2] has as its system Pgp in primary rBCEC monolayers. The experiment in a line: Concentration equilibrium transport assay (CETA), primary rBCEC monolayers. In kind it is in vitro ADME, rat. Particulars: Rho123 2 µM; primary rBCECs. As for the experimental part:
For these experiments, a concentration equilibrium transport assay (CETA) was used, which is more sensitive to identify Pgp substrates than conventional bidirectional (concentration gradient) transport assays. In the CETA, the drug is added to both (apical and basolateral) sides of the monolayer, so that the initial drug concentration is the same in both compartments, thereby minimizing the effect of passive diffusion across the cell monolayer.
Additionally, vectorial drug transport across RBE4-MDR1-EGFP, hCMEC/D3-MDR1-EGFP, LLC-MDR1, and primary rBCEC monolayers was studied using 2 µM Rho123 as a fluorescent Pgp substrate essentially following the same protocol as described for [^3H]dLop. Transport was measured using a FLUOstar OPTIMA fluorescence reader (ex.: 485 nm, em.: 520 nm; BMG Labtech), analyzing samples from basolateral and apical compartments collected at the various time points.

In data set [3] the target is Pgp in LLC-MDR1 monolayers (Homo sapiens, UniProt P08183). The conditions noted are these: Rho123 2 µM.

As to `COC(=O)c1ccccc1-c1c2ccc(=N)cc-2oc2cc(N)ccc12` [Rho123, rhodamine 123], the “increase of Rho123 efflux (accumulation in absence vs presence of tariquidar)” value in data set [1] is ~ 7 fold. For the same molecule, the “vectorial transport in CETA (apical vs basolateral concentrations)” value in data set [2] is reported as “significantly higher in the apical vs. basolateral chambers”. In addition, the “vectorial transport in CETA” value in data set [3] was “significant vectorial transport was observed”.

These data come from publication PMC8330100, “Similarities and differences in the localization, trafficking, and function of P-glycoprotein in MDR1-EGFP-transduced rat versus human brain capillary endothelial cell lines” (Fluids and Barriers of the CNS, 2021).
